Assay results taken from article PMC12380092, “Chemoenzymatic total synthesis of the antibiotic (−)-13-deoxytetrodecamycin using the Diels–Alderase TedJ” (Chemical Science, 2025).

Target: T1, TedJ (Streptomyces sp. WAC04657, UniProt Z9VZN5SQU4)
T1 construct: N-terminal hexa-histidine tag, recombinant in E. coli, purified; homodimer
T1 sequence (Z9VZN5SQU4 20-510): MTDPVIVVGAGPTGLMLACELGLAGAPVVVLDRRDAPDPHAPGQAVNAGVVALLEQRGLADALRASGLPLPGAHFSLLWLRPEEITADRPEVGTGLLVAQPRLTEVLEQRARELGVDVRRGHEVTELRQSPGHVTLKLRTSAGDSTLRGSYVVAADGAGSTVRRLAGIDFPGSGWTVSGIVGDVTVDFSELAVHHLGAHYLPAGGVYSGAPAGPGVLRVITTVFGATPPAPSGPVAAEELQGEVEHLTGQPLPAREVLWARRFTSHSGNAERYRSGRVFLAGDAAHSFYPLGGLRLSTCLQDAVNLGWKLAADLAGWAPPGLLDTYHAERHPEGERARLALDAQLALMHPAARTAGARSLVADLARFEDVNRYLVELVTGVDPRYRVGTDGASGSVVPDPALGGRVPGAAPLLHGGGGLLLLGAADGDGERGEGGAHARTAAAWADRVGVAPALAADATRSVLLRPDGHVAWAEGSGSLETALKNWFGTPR
Test: X-ray crystal structure ([…] Å); MS of denatured protein; absorbance spectrum
Format: binding
Conditions: non-covalently bound, co-purified; proposed structural role

## Cc1cc2nc3c(=O)[nH]c(=O)nc-3n(C[C@H](O)[C@H](O)[C@H](O)COP(=O)(O)OP(=O)(O)OC[C@H]3O[C@@H](n4cnc5c(N)ncnc54)[C@H](O)[C@@H]3O)c2cc1C [FAD]
  X-ray crystal structure (1.6 Å); MS of denatured protein; absorbance spectrum: showing the enzyme active site and non-covalently bound FAD molecule
